PMC11392244, “Characterization of a unique catechol-O-methyltransferase as a molecular drug target in parasitic filarial nematodes” (PLOS Neglected Tropical Diseases, 2024)
Values joined by “and” are separate entries in the source; they are usually repeats but may differ in a detail not shown here. Equal entries are not always repeated.

Columns and labels:
mammalian cells = conditions: read-out: Cytotoxicity IC50, ref Tan et al., [31]; cited from earlier work
D. immitis microfilariae = experiment: In vitro efficacy against live D. immitis microfilariae (motility, completely immotile %); assay type: cell-based, Dirofilaria immitis

Ivermectin [reference compound]
IC50 (mammalian cells): 37.4 µM | Completely Immotile Microfilariae (%) (D. immitis microfilariae; 2.5 µM, 0 h): 0% | Mean completely Immotile (%) (D. immitis microfilariae; 2.5 µM, 0 h): 0% | Completely Immotile Microfilariae (%) (D. immitis microfilariae; 2.5 µM, 24 h): 1% and 2% | Mean completely Immotile (%) (D. immitis microfilariae; 2.5 µM, 24 h): 1.7% | Completely Immotile Microfilariae (%) (D. immitis microfilariae; 2.5 µM, 48 h): 1.5% and 2.5% and 2% | Mean completely Immotile (%) (D. immitis microfilariae; 2.5 µM, 48 h): 2.0% | Completely Immotile Microfilariae (%) (D. immitis microfilariae; 2.5 µM, 72 h): 2% and 2.5% and 3% | Mean completely Immotile (%) (D. immitis microfilariae; 2.5 µM, 72 h): 2.5% | Completely Immotile Microfilariae (%) (D. immitis microfilariae; 2.5 µM, 90 h): 3% and 4% and 4.5% | Mean completely Immotile (%) (D. immitis microfilariae; 2.5 µM, 96 h): 3.8% | Completely Immotile Microfilariae (%) (D. immitis microfilariae; 2.5 µM, 120 h): 5% and 5.5% and 7% | Mean completely Immotile (%) (D. immitis microfilariae; 2.5 µM, 120 h): 5.83% | Mean completely Immotile (%) (D. immitis microfilariae; 5 µM, 0 h): 0% | Completely Immotile Microfilariae (%) (D. immitis microfilariae; 5.0 µM, 0 h): 0% | Mean completely Immotile (%) (D. immitis microfilariae; 5 µM, 24 h): 2.3% | Completely Immotile Microfilariae (%) (D. immitis microfilariae; 5.0 µM, 24 h): 2% and 3% | Mean completely Immotile (%) (D. immitis microfilariae; 5 µM, 48 h): 3.7% | Completely Immotile Microfilariae (%) (D. immitis microfilariae; 5.0 µM, 48 h): 3% and 4% | Mean completely Immotile (%) (D. immitis microfilariae; 5 µM, 72 h): 5.0% | Completely Immotile Microfilariae (%) (D. immitis microfilariae; 5.0 µM, 72 h): 5% and 4.5% and 5.5% | Completely Immotile Microfilariae (%) (D. immitis microfilariae; 5.0 µM, 90 h): 7.5% and 7% and 8.5% | Mean completely Immotile (%) (D. immitis microfilariae; 5 µM, 96 h): 7.7% | Mean completely Immotile (%) (D. immitis microfilariae; 5 µM, 120 h): 15.0% | Completely Immotile Microfilariae (%) (D. immitis microfilariae; 5.0 µM, 120 h): 15% and 12.5% and 17.5% | Completely Immotile Microfilariae (%) (D. immitis microfilariae; 10 µM, 0 h): 0% | Mean completely Immotile (%) (D. immitis microfilariae; 10 µM, 0 h): 0% | Completely Immotile Microfilariae (%) (D. immitis microfilariae; 10 µM, 24 h): 3% and 4% | Mean completely Immotile (%) (D. immitis microfilariae; 10 µM, 24 h): 3.3% | Completely Immotile Microfilariae (%) (D. immitis microfilariae; 10 µM, 48 h): 5% and 6% | Mean completely Immotile (%) (D. immitis microfilariae; 10 µM, 48 h): 5.7% | Completely Immotile Microfilariae (%) (D. immitis microfilariae; 10 µM, 72 h): 7.5% and 8.5% | Mean completely Immotile (%) (D. immitis microfilariae; 10 µM, 72 h): 7.8% | Completely Immotile Microfilariae (%) (D. immitis microfilariae; 10.0 µM, 90 h): 25% and 28.5% and 30% | Mean completely Immotile (%) (D. immitis microfilariae; 10 µM, 96 h): 27.8% | Completely Immotile Microfilariae (%) (D. immitis microfilariae; 10 µM, 120 h): 50% and 53.5% and 53% | Mean completely Immotile (%) (D. immitis microfilariae; 10 µM, 120 h): 52.2% | Mean completely Immotile (%) (D. immitis microfilariae; 15 µM, 0 h): 0% | Completely Immotile Microfilariae (%) (D. immitis microfilariae; 15.0 µM, 0 h): 0% | Mean completely Immotile (%) (D. immitis microfilariae; 15 µM, 24 h): 3.8% | Completely Immotile Microfilariae (%) (D. immitis microfilariae; 15.0 µM, 24 h): 3.5% and 4.5% | Mean completely Immotile (%) (D. immitis microfilariae; 15 µM, 48 h): 6.2% | Completely Immotile Microfilariae (%) (D. immitis microfilariae; 15.0 µM, 48 h): 6% and 6.7% | Mean completely Immotile (%) (D. immitis microfilariae; 15 µM, 72 h): 11.0% | Completely Immotile Microfilariae (%) (D. immitis microfilariae; 15.0 µM, 72 h): 10% and 12% and 11% | Completely Immotile Microfilariae (%) (D. immitis microfilariae; 15.0 µM, 90 h): 30% and 37% and 33% | Mean completely Immotile (%) (D. immitis microfilariae; 15 µM, 96 h): 33.3% | Mean completely Immotile (%) (D. immitis microfilariae; 15 µM, 120 h): 72.3% | Completely Immotile Microfilariae (%) (D. immitis microfilariae; 15.0 µM, 120 h): 70% and 75% and 72% | Mean completely Immotile (%) (D. immitis microfilariae; 20 µM, 0 h): 0% | Completely Immotile Microfilariae (%) (D. immitis microfilariae; 20.0 µM, 0 h): 0% | Mean completely Immotile (%) (D. immitis microfilariae; 20 µM, 24 h): 11.2% | Completely Immotile Microfilariae (%) (D. immitis microfilariae; 20.0 µM, 24 h): 10% and 12.5% and 11% | Mean completely Immotile (%) (D. immitis microfilariae; 20 µM, 48 h): 15.7% | Completely Immotile Microfilariae (%) (D. immitis microfilariae; 20.0 µM, 48 h): 15% and 17% | Mean completely Immotile (%) (D. immitis microfilariae; 20 µM, 72 h): 26.0% | Completely Immotile Microfilariae (%) (D. immitis microfilariae; 20.0 µM, 72 h): 25% and 30% and 23% | Completely Immotile Microfilariae (%) (D. immitis microfilariae; 20.0 µM, 90 h): 50% and 65% and 49% | Mean completely Immotile (%) (D. immitis microfilariae; 20 µM, 96 h): 54.7% | Mean completely Immotile (%) (D. immitis microfilariae; 20 µM, 120 h): 90.3% | Completely Immotile Microfilariae (%) (D. immitis microfilariae; 20.0 µM, 120 h): 90% and 94% and 87% | Mean completely Immotile (%) (D. immitis microfilariae; 30 µM, 0 h): 0% | Completely Immotile Microfilariae (%) (D. immitis microfilariae; 30.0 µM, 0 h): 0% | Mean completely Immotile (%) (D. immitis microfilariae; 30 µM, 24 h): 27.7% | Completely Immotile Microfilariae (%) (D. immitis microfilariae; 30.0 µM, 24 h): 25% and 30% and 28% | Mean completely Immotile (%) (D. immitis microfilariae; 30 µM, 48 h): 43.0% | Completely Immotile Microfilariae (%) (D. immitis microfilariae; 30.0 µM, 48 h): 40% and 46% and 43% | Mean completely Immotile (%) (D. immitis microfilariae; 30 µM, 72 h): 56.0% | Completely Immotile Microfilariae (%) (D. immitis microfilariae; 30.0 µM, 72 h): 50% and 60% and 58% | Completely Immotile Microfilariae (%) (D. immitis microfilariae; 30.0 µM, 90 h): 80% and 85% and 88% | Mean completely Immotile (%) (D. immitis microfilariae; 30 µM, 96 h): 84.3% | Mean completely Immotile (%) (D. immitis microfilariae; 30 µM, 120 h): 95.3% | Completely Immotile Microfilariae (%) (D. immitis microfilariae; 30.0 µM, 120 h): 95% and 98% and 93% | EC50 (D. immitis microfilariae; read-out: Anti-parasitic EC50): 17.6 µM
